# Test results published in patent US10016383B2, “Inhibitors of metallo-β-lactamase-enzymes” (McMaster University, priority 2013, dated 2018).
# How the values were obtained:
# ACE from rabbit lung = molecular target: T1, ACE from rabbit lung (Oryctolagus cuniculus, UniProt P12822); assay: IC50 enzyme inhibition assay, FAPGG reporter substrate; assay type: biochemical; conditions: concentration-response assays
# T1 construct: as well as ACE from rabbit lung; from tissue; host or cells: rabbit lung
# Protocol: Enzyme (NDM-1, 5 nM; VIM-2, 500 pM; CTX-M-15, 500 pM; KPC-2, 5 nM; OXA-48, 1 nM; TEM-1, 100 pM; ACE, 50 nM) was mixed with 30 μM nitrocefin (100 μM nitrocefin for TEM-1; 250 µM furanacryloyl-L-phenylalanylglycylglycine [FAPGG] for ACE^24) after a 5-10 minute preincubation with AM-A. Metallo-enzymes were supplemented with 10 μM ZnSO4. Assays were read in 96-well microplate format at 490 nm using a Spectramax reader (Molecular Devices) at 30-37° C.
# E. coli strain BW25113 was modified by deletion of the bamB and tolC genes so as to increase permeability to and reduce efflux of small molecules. This strain was then further modified by the single-copy chromosomal insertion of the blaNDM-1 gene under control of the pLac promoter. Microbial natural product extracts were screened against this strain in the presence of sublethal ¼ MIC meropenem. AM-A was purified from a hit extract and its structure elucidated by NMR, mass spectrometry and polarimetry. IC50 values for AM-A were determined using nitrocefin (for MBLs and Ser BLs) and furanacryloyl-L-phenylalanylglycylglycine (for ACE)^21 as reporter substrates against the following purified enzymes: MBLs IMP-7, VIM-2, and NDM-1; SBLs CTX-M-15, KPC-2, OXA-48, and TEM-1; as well as ACE from rabbit lung. […] FIC values were determined using standard methods^27. […]
# K. pneumoniae N11-2218 = assay: Microdilution checkerboard / MIC; assay type: cell-based, Klebsiella pneumoniae; conditions: checkerboard MIC, NDM-1 expressing CRE
# Protocol: FIC values were determined by standard methods^27 setting up checkerboards with 8 concentrations of each meropenem and AM-A in serial ½ dilutions. Experiments were done in duplicate and the mean used for calculation. The MIC for each compound was the lowest concentration of compound showing no growth. The FIC for each compound was calculated as the concentration of the compound in the presence of co-compound for a well showing no growth, divided by the MIC for that compound. The FIC index is the sum of the two FICs.
# [1] = rats, i.v.; cited from earlier work
# [2] = in vivo; cited from earlier work
# NDM-1 [3] = molecular target: T2, NDM-1 (Klebsiella pneumoniae, UniProt C7C422); assay: Incubation of AM-A with metalloenzymes in Zn2+-depleted buffer; assay type: biochemical; design: All β-lactamase overexpression constructs were generated without the leader peptide in a pET-28b plasmid containing a N-terminal His Tag; His tag (N, cleaved yes); SUMO (implied by the use of SUMO protease) (N, cleaved yes); made in house; host or cells: E. coli BL21(DE3); conditions: extended incubation, AM-A 0.5 mM
# Protocol: Enzyme (500 nM) was incubated with AM-A (500 μM) for 10 minutes. 20 μL of the above was diluted with 180 μL nitrocefin or FAPGG substrate for the following final concentrations: Enzyme (50 nM), FAPGG (50 μM)/nitrocefin (20 μM), AM-A (50 μM). Buffer (50 mM HEPES pH 7.5, 300 mM NaCl) was stirred overnight with 2 g/100 mL Chelex-100 (Biorad; Richmond, Calif.). Assays were read in 96-well microplate format at 490 nm using a Spectramax reader (Molecular Devices) at 37° C.
# NDM-1 [4] = molecular target: T2, NDM-1; assay: Reversibility assay (PD-10 column removal of AM-A); assay type: biochemical; design: All β-lactamase overexpression constructs were generated without the leader peptide in a pET-28b plasmid containing a N-terminal His Tag; His tag (N, cleaved yes); SUMO (implied by the use of SUMO protease) (N, cleaved yes); made in house; host or cells: E. coli BL21(DE3); conditions: after removal of AM-A by gel filtration (PD10 column)
# Protocol: 5 mL NDM-1 (500 nM) was incubated either with AM-A (100 μM), or without, on ice for 1 hour. The no enzyme control was buffer alone (Chelex-treated 50 mM HEPES pH 7.5). 2.5 mL was passed through a PD-10 spin column (GE healthcare) following column equilibration with buffer and centrifuged at 2,000×g for 2 minutes. Pre-PD-10 (+AM-A, −AM-A, −NDM-1), Post-PD-10 ((+AM-A, −AM-A, −NDM-1), and nitrocefin were equilibrated to 30° C. 20 μL of the enzyme solution was added to 180 μL nitrocefin for final enzyme concentration of 50 nM, and nitrocefin of 100 μM and AM-A of 10 μM. Assays were read in 96-well microplate format at 490 nm using a Spectramax reader (Molecular Devices) for 1 hr at 30° C.
# T2 sequence (C7C422 29-270 limits assumed): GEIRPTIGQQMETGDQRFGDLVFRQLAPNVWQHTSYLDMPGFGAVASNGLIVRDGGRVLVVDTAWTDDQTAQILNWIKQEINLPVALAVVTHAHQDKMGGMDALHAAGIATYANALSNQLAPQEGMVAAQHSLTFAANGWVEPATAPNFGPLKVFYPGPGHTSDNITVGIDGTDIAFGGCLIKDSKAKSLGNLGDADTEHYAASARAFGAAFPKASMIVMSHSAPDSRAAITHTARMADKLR
# T1 sequence (P12822 34-1310): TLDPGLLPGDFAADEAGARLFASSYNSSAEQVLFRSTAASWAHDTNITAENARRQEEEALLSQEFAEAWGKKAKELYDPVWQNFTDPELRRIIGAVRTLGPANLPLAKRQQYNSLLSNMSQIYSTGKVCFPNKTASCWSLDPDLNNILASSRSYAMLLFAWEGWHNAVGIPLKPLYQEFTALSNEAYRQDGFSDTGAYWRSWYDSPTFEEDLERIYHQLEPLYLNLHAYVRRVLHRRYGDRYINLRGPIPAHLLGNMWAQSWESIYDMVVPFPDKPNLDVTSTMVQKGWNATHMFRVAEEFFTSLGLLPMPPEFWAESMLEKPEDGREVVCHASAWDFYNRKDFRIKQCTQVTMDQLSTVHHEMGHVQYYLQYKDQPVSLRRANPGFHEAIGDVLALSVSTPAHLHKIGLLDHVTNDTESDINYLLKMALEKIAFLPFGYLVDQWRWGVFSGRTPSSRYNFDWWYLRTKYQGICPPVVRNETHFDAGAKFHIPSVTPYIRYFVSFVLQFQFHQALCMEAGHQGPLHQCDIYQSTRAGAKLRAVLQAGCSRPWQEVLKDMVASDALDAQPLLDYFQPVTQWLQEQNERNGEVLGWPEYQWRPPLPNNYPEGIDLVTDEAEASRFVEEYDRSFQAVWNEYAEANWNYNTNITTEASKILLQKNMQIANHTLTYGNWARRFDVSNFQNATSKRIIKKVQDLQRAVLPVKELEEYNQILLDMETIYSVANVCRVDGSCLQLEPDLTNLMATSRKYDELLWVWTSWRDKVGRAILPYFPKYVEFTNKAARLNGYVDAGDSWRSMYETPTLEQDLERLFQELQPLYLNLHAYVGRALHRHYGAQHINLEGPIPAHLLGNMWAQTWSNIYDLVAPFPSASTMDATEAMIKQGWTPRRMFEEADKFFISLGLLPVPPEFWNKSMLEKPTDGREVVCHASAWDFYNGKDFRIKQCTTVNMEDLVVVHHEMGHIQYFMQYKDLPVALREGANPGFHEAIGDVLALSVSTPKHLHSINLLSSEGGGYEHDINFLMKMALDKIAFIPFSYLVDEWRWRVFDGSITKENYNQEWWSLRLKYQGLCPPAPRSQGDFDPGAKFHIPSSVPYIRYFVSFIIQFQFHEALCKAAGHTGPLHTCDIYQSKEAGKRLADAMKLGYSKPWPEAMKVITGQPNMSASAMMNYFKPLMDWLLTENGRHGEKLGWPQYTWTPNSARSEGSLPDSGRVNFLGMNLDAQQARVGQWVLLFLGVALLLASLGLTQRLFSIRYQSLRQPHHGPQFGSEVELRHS
compound,measurement,setting,value
"N[C@H](CN[C@H](CN[C@@H](CC(=O)O)C(=O)O)C(=O)O)C(=O)O [AM-A, aspergillomarasmine A]",reduction of activity of rabbit lung ACE,ACE from rabbit lung,~35%
same,synergy between meropenem and AM-A,K. pneumoniae N11-2218,synergy
same,LD50,[1],250 mg/kg
same,effect on mean atrial blood pressure,[2],no effect
same,inactivation of NDM-1,NDM-1 [3],complete inactivation
same,reversibility of NDM-1 inhibition,NDM-1 [4],irreversible inactivation
